# Assays:
# Type in all cases: cell-based
# [1] = test system: IL-2 secretion from T cells in human whole blood; conditions: read-out: WB (IL-2) IC50 (nM, Avg)
# hKv1.3 = hKv1.3 (Homo sapiens, UniProt P22001); test: cell-based; conditions: Kv1.3 (IWQ) IC50 (nM, Avg)
# [2] = test system: IFN-g secretion from T cells in human whole blood; conditions: read-out: WB (IFNg) IC50 (nM, Avg)
# Sequence of hKv1.3 (P22001 whole entry): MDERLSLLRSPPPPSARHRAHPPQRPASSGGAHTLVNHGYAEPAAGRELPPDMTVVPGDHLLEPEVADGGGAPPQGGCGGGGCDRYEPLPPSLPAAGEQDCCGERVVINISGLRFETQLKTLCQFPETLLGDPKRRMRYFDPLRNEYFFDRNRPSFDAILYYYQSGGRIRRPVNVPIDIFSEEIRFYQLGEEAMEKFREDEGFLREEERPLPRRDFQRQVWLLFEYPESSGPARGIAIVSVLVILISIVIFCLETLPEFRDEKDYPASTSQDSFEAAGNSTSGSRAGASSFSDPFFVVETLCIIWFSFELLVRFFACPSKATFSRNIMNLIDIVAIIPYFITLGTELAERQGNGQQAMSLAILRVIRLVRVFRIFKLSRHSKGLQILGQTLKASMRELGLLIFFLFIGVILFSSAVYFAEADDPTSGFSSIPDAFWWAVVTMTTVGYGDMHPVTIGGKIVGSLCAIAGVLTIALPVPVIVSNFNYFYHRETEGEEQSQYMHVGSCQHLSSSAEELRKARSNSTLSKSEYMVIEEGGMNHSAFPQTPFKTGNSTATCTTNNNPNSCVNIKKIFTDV
SMILES,IC50 [1] [nM],IC50 (hKv1.3) [nM],IC50 [2] [nM]
CC[C@H](C)[C@@H]1NC(=O)[C@@H](NC(=O)[C@H](CO)NC(=O)[C@@H](N)CCCNC(=N)N)CSSC[C@@H](C(=O)O)NC(=O)[C@H]([C@@H](C)O)NC(=O)CNC(=O)[C@@H]2CSSC[C@@H]3NC(=O)[C@H](CCC(N)=O)NC(=O)[C@H](Cc4cccc5ccccc45)NC(=O)[C@H](C)NC(=O)[C@H]([C@@H](C)O)NC(=O)[C@H](CSSC[C@H](NC(=O)[C@H](Cc4ccccc4)NC(=O)[C@H](CO)NC(=O)[C@H](CC(C)C)NC(=O)[C@H](CCCNC(=N)N)NC(=O)[C@H](Cc4ccc(O)cc4)NC(=O)[C@H](CCCCN)NC(=O)[C@H](CCSC)NC(=O)[C@H](CO)NC(=O)[C@H](Cc4c[nH]cn4)NC(=O)[C@H](CCCCN)NC3=O)C(=O)N[C@@H](CCCNC(=N)N)C(=O)N[C@@H](CCCCN)C(=O)N[C@@H]([C@@H](C)O)C(=O)N2)NC(=O)[C@H](CCCNC(=N)N)NC(=O)[C@H](CO)NC(=O)[C@H](CCCCN)NC(=O)[C@@H]2CCCN2C(=O)[C@H]([C@@H](C)CC)NC(=O)[C@H]([C@@H](C)O)NC(=O)[C@H](CC(=O)O)NC1=O [[1-Nal15]ShK],0.184,0.072,0.291
"CCC[C@@H]1NC(=O)[C@H](CO)NC(=O)[C@H](Cc2c[nH]cn2)NC(=O)[C@H](CCCCN)NC(=O)[C@@H]2CSSC[C@@H]3NC(=O)[C@H]([C@@H](C)O)NC(=O)[C@H](CCCCN)NC(=O)[C@H](CCCNC(=N)N)NC(=O)[C@H](CSSC[C@H](NC(=O)[C@H](CCCNC(=N)N)NC(=O)[C@H](CO)NC(=O)[C@H](CCCCN)NC(=O)[C@@H]4CCCN4C(=O)[C@H]([C@@H](C)CC)NC(=O)[C@H]([C@@H](C)O)NC(=O)[C@H](CC(=O)O)NC(=O)[C@H](CCC(=O)O)NC(=O)[C@@H](NC(=O)[C@H](CO)NC(=O)[C@@H](N)CCCNC(=N)N)CSSC[C@@H](C(=O)N[C@@H](C)C(=O)O)NC(=O)[C@H]([C@@H](C)O)NC(=O)CNC3=O)C(=O)N[C@@H]([C@@H](C)O)C(=O)N[C@@H](C)C(=O)N[C@@H](Cc3ccccc3)C(=O)N[C@@H](CCCCN)C(=O)N2)NC(=O)[C@H](Cc2ccccc2)NC(=O)[C@H](CO)NC(=O)[C@H](CC(C)C)NC(=O)[C@H](CCCNC(=N)N)NC(=O)[C@H](Cc2ccc(O)cc2)NC(=O)[C@H](CCCCN)NC1=O [[Glu4,Lys16,Nva21]ShK-Ala]",0.208,33.3,0.368
CC[C@H](C)[C@@H]1NC(=O)[C@@H](NC(=O)[C@H](CO)NC(=O)[C@@H](N)CCCNC(=N)N)CSSC[C@@H](C(=O)O)NC(=O)[C@H]([C@@H](C)O)NC(=O)CNC(=O)[C@@H]2CSSC[C@@H]3NC(=O)[C@H](CCC(N)=O)NC(=O)[C@H](CCCCN)NC(=O)[C@H](C)NC(=O)[C@H]([C@@H](C)O)NC(=O)[C@H](CSSC[C@H](NC(=O)[C@H](Cc4ccccc4)NC(=O)[C@H](CO)NC(=O)[C@H](CC(C)C)NC(=O)[C@H](CCCNC(=N)N)NC(=O)[C@H](Cc4ccc(O)cc4)NC(=O)[C@H](CCCCN)NC(=O)[C@H](CCSC)NC(=O)[C@H](CO)NC(=O)[C@H](Cc4c[nH]cn4)NC(=O)[C@H](CCCCN)NC3=O)C(=O)N[C@@H](CCCNC(=N)N)C(=O)N[C@@H](CCCCN)C(=O)N[C@@H]([C@@H](C)O)C(=O)N2)NC(=O)[C@H](CCCNC(=N)N)NC(=O)[C@H](CO)NC(=O)[C@H](CCCCN)NC(=O)[C@@H]2CCCN2C(=O)[C@H]([C@@H](C)CC)NC(=O)[C@H]([C@@H](C)O)NC(=O)[C@H](CC(=O)O)NC1=O [[Lys15]ShK],0.465,0.295,0.991
"CC[C@H](C)[C@@H]1NC(=O)[C@@H](NC(=O)[C@H](CO)NC(=O)[C@@H](N)CCCNC(=N)N)CSSC[C@@H](C(N)=O)NC(=O)[C@H]([C@@H](C)O)NC(=O)CNC(=O)[C@@H]2CSSC[C@@H]3NC(=O)[C@H](CCCCN)NC(=O)[C@H](Cc4ccccc4)NC(=O)[C@H](C)NC(=O)[C@H]([C@@H](C)O)NC(=O)[C@H](CSSC[C@H](NC(=O)[C@H](Cc4ccccc4)NC(=O)[C@H](CO)NC(=O)[C@H](CC(C)C)NC(=O)[C@H](CCCNC(=N)N)NC(=O)[C@H](Cc4ccc(O)cc4)NC(=O)[C@H](CCCCN)NC(=O)[C@H](CCSC)NC(=O)[C@H](CO)NC(=O)[C@H](Cc4c[nH]cn4)NC(=O)[C@H](CCCCN)NC3=O)C(=O)N[C@@H](CCCCN)C(=O)N[C@@H](CCCNC(=N)N)C(=O)N[C@@H]([C@@H](C)O)C(=O)N2)NC(=O)[C@H](CCCNC(=N)N)NC(=O)[C@H](CO)NC(=O)[C@H](CCCCN)NC(=O)[C@@H]2CCCN2C(=O)[C@H]([C@@H](C)CC)NC(=O)[C@H]([C@@H](C)O)NC(=O)[C@H](CC(=O)O)NC1=O [[Lys16,29; Arg30]ShK-amide]",0.339,0.131,0.281
CC[C@H](C)[C@@H]1NC(=O)[C@@H](NC(=O)[C@H](CO)NC(=O)[C@@H](N)CCCNC(=N)N)CSSC[C@@H](C(=O)O)NC(=O)[C@H]([C@@H](C)O)NC(=O)CNC(=O)[C@@H]2CSSC[C@@H]3NC(=O)[C@H](CCC(N)=O)NC(=O)[C@H](Cc4ccccc4)NC(=O)[C@H](C)NC(=O)[C@H]([C@@H](C)O)NC(=O)[C@H](CSSC[C@H](NC(=O)[C@H](Cc4ccccc4)NC(=O)[C@H](CO)NC(=O)[C@H](CC(C)C)NC(=O)[C@H](CCCNC(=N)N)NC(=O)[C@H](Cc4ccc(O)cc4)NC(=O)[C@H](CCCCN)NC(=O)[C@H](CCSC)NC(=O)[C@H](CO)NC(=O)[C@H](Cc4c[nH]cn4)NC(=O)[C@H](CCCCN)NC3=O)C(=O)N[C@@H](CCCNC(=N)N)C(=O)N[C@@H](CCCCN)C(=O)N[C@@H]([C@@H](C)O)C(=O)N2)NC(=O)[C@H](CCCNC(=N)N)NC(=O)[C@H](CCCNC(=N)N)NC(=O)[C@H](CCCCN)NC(=O)[C@@H]2CCCN2C(=O)[C@H]([C@@H](C)CC)NC(=O)[C@H]([C@@H](C)O)NC(=O)[C@H](CC(=O)O)NC1=O [[Arg10]ShK],0.029,0.07,0.068
CC[C@H](C)[C@@H]1NC(=O)[C@@H](NC(=O)[C@H](CO)NC(=O)[C@H](C)N)CSSC[C@@H](C(=O)O)NC(=O)[C@H]([C@@H](C)O)NC(=O)CNC(=O)[C@@H]2CSSC[C@@H]3NC(=O)[C@H](CCC(N)=O)NC(=O)[C@H](Cc4ccccc4)NC(=O)[C@H](C)NC(=O)[C@H]([C@@H](C)O)NC(=O)[C@H](CSSC[C@H](NC(=O)[C@H](Cc4ccccc4)NC(=O)[C@H](CO)NC(=O)[C@H](CC(C)C)NC(=O)[C@H](CCCNC(=N)N)NC(=O)[C@H](Cc4ccc(O)cc4)NC(=O)[C@H](CCCCN)NC(=O)[C@H](CCSC)NC(=O)[C@H](CO)NC(=O)[C@H](Cc4c[nH]cn4)NC(=O)[C@H](CCCCN)NC3=O)C(=O)N[C@@H](CCCNC(=N)N)C(=O)N[C@@H](CCCCN)C(=O)N[C@@H]([C@@H](C)O)C(=O)N2)NC(=O)[C@H](CCCNC(=N)N)NC(=O)[C@H](CO)NC(=O)[C@H](CCCCN)NC(=O)[C@@H]2CCCN2C(=O)[C@H]([C@@H](C)CC)NC(=O)[C@H]([C@@H](C)O)NC(=O)[C@H](CC(=O)O)NC1=O [[Ala1]ShK],0.073,0.168,0.102
"CCCC[C@@H]1NC(=O)[C@H](CO)NC(=O)[C@H](Cc2c[nH]cn2)NC(=O)[C@H](CCCCN)NC(=O)[C@@H]2CSSC[C@@H]3NC(=O)[C@H]([C@@H](C)O)NC(=O)[C@H](CCC(=O)O)NC(=O)[C@H](CCCNC(=N)N)NC(=O)[C@H](CSSC[C@H](NC(=O)[C@H](CCCNC(=N)N)NC(=O)[C@H](CO)NC(=O)[C@H](CCCCN)NC(=O)[C@@H]4CCCN4C(=O)[C@H]([C@@H](C)CC)NC(=O)[C@H]([C@@H](C)O)NC(=O)[C@H](CC(=O)O)NC(=O)[C@H]([C@@H](C)CC)NC(=O)[C@@H](NC(=O)[C@H](CO)NC(=O)[C@@H](N)CCCNC(=N)N)CSSC[C@@H](C(N)=O)NC(=O)[C@H]([C@@H](C)O)NC(=O)CNC3=O)C(=O)N[C@@H]([C@@H](C)O)C(=O)N[C@@H](C)C(=O)N[C@@H](Cc3ccccc3)C(=O)N[C@@H](CCCCN)C(=O)N2)NC(=O)[C@H](Cc2ccccc2)NC(=O)[C@H](CO)NC(=O)[C@H](CC(C)C)NC(=O)[C@H](CCCNC(=N)N)NC(=O)[C@H](Cc2ccc(O)cc2)NC(=O)[C@H](CCCCN)NC1=O [[Lys16, Nle21,Glu30]ShK-amide]",3.18,1.88,5.03
CC[C@H](C)[C@@H]1NC(=O)[C@@H](NC(=O)[C@H](CO)NC(=O)[C@@H](N)CCCNC(=N)N)CSSC[C@@H](C(=O)O)NC(=O)[C@H]([C@@H](C)O)NC(=O)CNC(=O)[C@@H]2CSSC[C@@H]3NC(=O)[C@H](CCC(N)=O)NC(=O)[C@H](Cc4ccccc4)NC(=O)[C@H](C)NC(=O)[C@H]([C@@H](C)O)NC(=O)[C@H](CSSC[C@H](NC(=O)[C@H](Cc4ccccc4)NC(=O)[C@H](CO)NC(=O)[C@H](CC(C)C)NC(=O)[C@H](CCCNC(=N)N)NC(=O)[C@H](Cc4ccc(O)cc4)NC(=O)[C@H](CCCCN)NC(=O)[C@H](CCSC)NC(=O)[C@H](CO)NC(=O)[C@H](CCCNC(=N)N)NC(=O)[C@H](CCCCN)NC3=O)C(=O)N[C@@H](CCCNC(=N)N)C(=O)N[C@@H](CCCCN)C(=O)N[C@@H]([C@@H](C)O)C(=O)N2)NC(=O)[C@H](CCCNC(=N)N)NC(=O)[C@H](CO)NC(=O)[C@H](CCCCN)NC(=O)[C@@H]2CCCN2C(=O)[C@H]([C@@H](C)CC)NC(=O)[C@H]([C@@H](C)O)NC(=O)[C@H](CC(=O)O)NC1=O [[Arg19]ShK],0.039,0.1,0.116

# From patent US20120121591A1 (priority 2009, published 2012)
